Series [1] is described as follows: Acute cytotoxicity against cat CRFK cells assessed as decrease in cell viability at 10 uM measured after 24 hrs by MTT assay relative to control. Type of series: cell-based, Felis catus.
Series [2] is described as follows: Chronic cytotoxicity against cat FL-4 cells assessed as decrease in cell viability measured after 7 days by MTT assay. Type of series: cell-based, Felis catus.
The subject of series [3] is Feline immunodeficiency virus. Put plainly: Antiviral activity against FIV infected in cat FL-4 cells assessed as reduction in viral RNA level measured after 7 days by qRT-PCR analysis. Type of series: functional, organism-based. The settings on record: FL-4, 168 h.
A short description of series [4]: Therapeutic index, ratio of CC50 for cat FL-4 cells to EC50 for antiviral activity against FIV infected in cat FL-4 cells. Type of series: toxicity, cell-based. To be noted: read-out: Ratio CC50/EC50.
The nature of series [5]: Solubility of the compound. Type of series: physicochemical.
The nature of series [6]: Aqueous solubility of the compound. Type of series: physicochemical. The settings on record: buffer.

Structures are written as SMILES.

For `CN1C(=O)[C@]2(Cc3ccccc3)SS[C@@]1(CO)C(=O)N2C`, in series [1], the Activity is recorded as 74%.
Turning to `O=C1[C@H](S)N(Cc2ccccc2)C(=O)[C@H](S)N1Cc1ccccc1`, the Activity in series [1] was above 100%. Besides, in series [2], the 50% cytotoxic concentration (CC50) at 168 h was 15000 nM. The EC50 in series [3] came to 1800 nM.
Regarding `O=C1[C@@H]2SS[C@@H](C(=O)N2Cc2ccccc2)N1Cc1ccccc1` (racemic), in series [1], the Activity is above 100%. Further, in series [2], the CC50 at 168 h amounted to 4700 nM. In addition, the EC50 in series [3] lay in the range of 3900 to 4000 nM. Further, in series [4], the selectivity ratio is 1.2.
As to `C=CCN1C(=O)[C@@H]2SS[C@H]1C(=O)N2Cc1ccccc1` (racemic), in series [1], the Activity is recorded as 96%. Also, the CC50 at 168 h in series [2] came to 5100 nM. Moreover, the EC50 in series [3] is 2100 nM. For the same compound, in series [4], the selectivity ratio is 2.4.
Turning to `CC(C)N1C(=O)[C@@H]2SS[C@H]1C(=O)N2Cc1ccccc1` (racemic), in series [1], the Activity amounted to 50%. Also, in series [2], the CC50 at 168 h came to 6500 nM. In addition, in series [3], the EC50 came to 1600 nM. Also, in series [4], the selectivity ratio was determined as 4.
Take `COC(=O)CCCCCN1C(=O)[C@@H]2SS[C@H]1C(=O)N2Cc1ccccc1` (racemic): the Activity in series [1] was above 100%. The CC50 at 168 h in series [2] was above 10000 nM. Besides, the EC50 in series [3] was 34 nM. Moreover, the selectivity ratio in series [4] was above 300. Besides, the solubility entry in series [5] is given as “Soluble”.
Turning to `CN1C(=O)[C@@H]2SS[C@H]1C(=O)N2C` (racemic), the Activity in series [1] worked out at 77%. The CC50 at 168 h in series [2] is above 10000 nM. Moreover, in series [3], the EC50 stood at 3000 nM. Further, the selectivity ratio in series [4] is above 3. Also, the solubility result in series [5] is “Insoluble”.
`C=CC[C@@]12SS[C@@H](C(=O)N1Cc1ccccc1)N(Cc1ccccc1)C2=O` (racemic): in series [1], the Activity is above 100%. In addition, the CC50 at 168 h in series [2] was found to be 6000 nM. Besides, the concentration for a half-maximal effect (EC50) in series [3] amounted to 88 nM. Besides, the selectivity ratio in series [4] amounted to 69.
Take `CCCCN1C(=O)[C@@H]2SS[C@H]1C(=O)N2Cc1ccccc1` (racemic): the Activity in series [1] came to 63%. Further, in series [2], the CC50 at 168 h was above 10000 nM. Also, the EC50 in series [3] is 630 nM. Also, in series [4], the selectivity ratio is above 16.
For `CN1C(=O)[C@@H]2SS[C@H]1C(=O)N2Cc1ccccc1` (racemic), the Activity in series [1] was above 100%. The CC50 at 168 h in series [2] was above 10000 nM. The EC50 in series [3] came to 910 nM. Besides, the selectivity ratio in series [4] was above 11.
As for `O=C1[C@@H]2SS[C@@H](C(=O)N2Cc2cccc(Cl)c2)N1Cc1ccccc1` (racemic), in series [1], the Activity is given as above 100%. Further, in series [2], the CC50 at 168 h was above 100000 nM. Also, the EC50 in series [3] stood at 550 nM. Also, the selectivity ratio in series [4] is above 184.
Consider `CCOC(=O)CCCN1C(=O)[C@@H]2SS[C@H]1C(=O)N2Cc1ccccc1` (racemic), for which, in series [1], the Activity is listed as above 100%. Besides, the CC50 at 168 h in series [2] came to 7500 nM. Also, the EC50 in series [3] came to 160 nM. Moreover, in series [4], the selectivity ratio is 48. Further, in series [5], the solubility entry was “Soluble”.
Take `O=C1[C@@H]2SS[C@@H](C(=O)N2Cc2cccc3ccccc23)N1Cc1ccccc1` (racemic): in series [1], the Activity is recorded as above 100%. Besides, the CC50 at 168 h in series [2] worked out at 7200 nM. Further, the EC50 in series [3] was found to be 1900 nM. Moreover, in series [4], the selectivity ratio came to 4.
For `CCOC(=O)CCN1C(=O)[C@@H]2SS[C@H]1C(=O)N2Cc1ccccc1` (racemic), in series [1], the Activity is recorded as above 100%. The CC50 at 168 h in series [2] is above 10000 nM. In addition, in series [3], the EC50 was 53 nM. Besides, in series [4], the selectivity ratio was above 190. Besides, the solubility entry in series [5] is “Soluble”.
With `C=CCN1C(=O)[C@@H]2SS[C@@]1(CC=C)C(=O)N2Cc1ccccc1` (racemic), in series [1], the Activity is on record as above 100%. For the same compound, the CC50 at 168 h in series [2] was above 100000 nM. For the same compound, the EC50 in series [3] is above 10000 nM. For the same compound, the solubility entry in series [6] is “Insoluble”.
Consider `C=CCN1C(=O)[C@@H]2SS[C@@]1(Cc1ccccc1)C(=O)N2Cc1ccccc1` (racemic), for which the Activity in series [1] was found to be 85%. In addition, the CC50 at 168 h in series [2] turned out to be 720 nM. In addition, the EC50 in series [3] is 110 nM. For the same compound, the selectivity ratio in series [4] amounted to 6.7.
On to `COc1ccc(CN2C(=O)[C@@H]3SS[C@H]2C(=O)N3Cc2ccccc2)cc1` (racemic), for which the Activity in series [1] amounted to 99%. The CC50 at 168 h in series [2] is 5400 nM. For the same compound, the EC50 in series [3] came out at 410 nM.
In the case of `C=CCN1C(=O)[C@]2(CC=C)SS[C@@]1(CC=C)C(=O)N2CC=C` (racemic), the Activity in series [1] is 99%. The CC50 at 168 h in series [2] came to 8800 nM. Further, the EC50 in series [3] was 880 nM. Also, the selectivity ratio in series [4] turned out to be 10.
Turning to `C=CCN1C(=O)[C@]2(Cc3ccccc3)SS[C@H]1C(=O)N2Cc1ccccc1` (racemic), the Activity in series [1] was above 100%. Further, the cytotoxic concentration (CC50) at 168 h in series [2] amounted to 79000 nM. The EC50 in series [3] was 890 nM. The selectivity ratio in series [4] stood at 88.
As for `CS[C@H]1C(=O)N(Cc2ccccc2)[C@@H](SC)C(=O)N1Cc1ccccc1` (relative stereo), the Activity in series [1] came out at 96%. Besides, in series [2], the CC50 at 168 h is above 100000 nM. Further, the EC50 in series [3] is above 100000 nM.
For `CN1C(=O)[C@@]23C[C@]4([C@]56C[C@@]78SS[C@@](CO)(C(=O)N7[C@H]5Nc5ccccc56)N(C)C8=O)c5ccccc5N[C@@H]4N2C(=O)[C@]1(CO)SS3` [CHAETOCIN], the Activity in series [1] is on record as 11%. In series [2], the CC50 at 168 h came to 3.5 nM. In addition, the EC50 in series [3] stood at 1.7 nM. Further, the selectivity ratio in series [4] came to 2.1.
For `CN1C(=O)[C@]23CC4=CC=C[C@H](O)[C@H]4N2C(=O)[C@@]1(CO)SS3` [GLIOTOXIN], in series [1], the Activity stood at 6.1%.
Turning to `Cc1nnc(C(=O)NC(C)(C)c2nc(C(=O)NCc3ccc(F)cc3)c(O)c(=O)n2C)o1` [RALTEGRAVIR], the Activity in series [1] is above 100%. The CC50 at 168 h in series [2] is above 100000 nM. Moreover, in series [3], the EC50 was determined as 10 nM. In addition, the selectivity ratio in series [4] is above 10000.
On to `Cc1cn([C@H]2C[C@H](N=[N+]=[N-])[C@@H](CO)O2)c(=O)[nH]c1=O` [ZIDOVUDINE], for which, in series [1], the Activity was above 100%. Moreover, in series [2], the CC50 at 168 h is above 100000 nM. For the same compound, in series [3], the EC50 turned out to be 5300 nM.
